Test results from US20110269763A1, “CRTH2 receptor ligands for medicinal uses” (7TM Pharma A/S, priority 2004, published 2011).
pIC50: −log10 of the molar value.

Columns and labels:
[1] = target: T1, human CRTH2 (Homo sapiens, UniProt Q9Y5Y4, V204A); test: Functional antagonist BRET assay on HEK293 cells stably expressing human CRTH2-Rluc and GFP2-β-arr2; type: cell-based; parameters: expressed in transfected cells; conditions: read-out: Antag. IC50
T1 sequence (Q9Y5Y4 1-395 V204A): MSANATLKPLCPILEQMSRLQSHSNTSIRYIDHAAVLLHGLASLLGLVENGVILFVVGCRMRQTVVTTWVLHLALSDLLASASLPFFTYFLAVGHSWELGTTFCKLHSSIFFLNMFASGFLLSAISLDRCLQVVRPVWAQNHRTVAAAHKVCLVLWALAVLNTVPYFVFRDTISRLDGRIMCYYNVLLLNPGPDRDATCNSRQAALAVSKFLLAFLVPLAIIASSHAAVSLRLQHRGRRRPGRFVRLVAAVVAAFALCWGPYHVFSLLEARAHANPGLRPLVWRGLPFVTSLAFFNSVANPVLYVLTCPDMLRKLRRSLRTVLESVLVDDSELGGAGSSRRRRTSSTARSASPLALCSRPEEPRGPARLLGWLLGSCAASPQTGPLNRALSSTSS
Text: (§1) Generation/origin of the cDNA Constructs. The coding sequence of the human CRTH2 receptor (genbank accession no NM_004778) was amplified by PCR from a human hippocampus cDNA library and inserted into the pcDNA3.1(+) expression vector (invitrogen) via 5′ HindIII and 3′ EcoRI. To generate a CRTH2-Renilla luciferase (CRTH2-Rluc) fusion protein, the CRTH2 coding sequence without a STOP codon and Rluc were amplified, fused in frame by PCR and subcloned into the pcDNA3.1(+)Zeo expression vector (invitrogen). Human β-arrestin2 (β-arr2) N-terminally tagged with GFP^2 (βarr2-GFP^2) and Renilla luciferase were purchased from BioSignal Packard Inc, (Montreal, Canada). The sequence identity of the construct was verified by restriction endonuclease digests and sequencing in both directions on an ABI Prism (Applied Biosystems, Foster City, Calif.).
(§2) Cell Culture and Transfection. COS-7 cells were grown in Dulbecco's modified Eagle's medium (DMEM) 1885 supplemented with 10% fetal bovine serum, 100 units/ml penicillin, […] streptomycin, and kept at 37° C. in a 10% CO2 atmosphere. HEK293 cells were maintained in Minimum Essential medium (MEM) supplemented with 10% (v/v) heat inactivated fetal calf serum (HIFCS), 2 mM Glutamax™-I, 1% non essential amino acids (NEAA), 1% sodium pyruvate and 10 μg/ml gentamicin. For binding experiments, COS7 cells were transiently transfected with the CRTH2 receptor using a calcium phosphate-DNA coprecipitation method with the addition of chloroquine (as described by Holst et al., 2001↓). To perform the functional Bioluminescence Resonance Energy Transfer (BRET) assays, a HEK293 cell clone stably expressing βarr2-GFP^2 and CRTH2-Rluc was generated (CRTH2-HEK293 cells).
BRET assay. Functional BRET assays were performed on HEK293 cells stably expressing human CRTH2-Rluc and GFP^2-β-arr2. Prior to their use in the BRET assay cells were detached and re-suspended in D-PBS with 1000 mg/L L-Glucose at a density of 2×10^6 cells/mL. DeepBlueC™ was diluted to 50 μM in D-PBS with 1000 mg/L L-Glucose (light sensitive). 100 μL of cell suspension was transferred to wells in a 96-well microplate (white OptiPlate) and placed in the Mithras LB 940 instrument (BERTHOLD TECHNOLOGIES, Bad Wildbad, Germany). 12 μL/well agonist was then injected by injector 1 and 10 μL/well DeepBlueC™ was injected simultaneously by injector 2. Five seconds after the injections the light output from the well was measured sequentially at 400 nm and 515 nm, and the BRET signal (mBRET ratio) was calculated by the ratio of the fluorescence emitted by GFP^2-β-arr2 (515 nm) over the light emitted by the receptor-Rluc (400 nm). Antagonists were added before placing the microplates into the Mithras LB 940 and allowed to incubate for 15 minutes prior to the addition of agonist and DeepBlueC™. Compounds were dissolved in DMSO and the final DMSO concentration was kept constant at 1% in the assay.
(§3) Curve analysis was performed with the GraphPadPrism software 3.0 (Graphpad Prism Inc., San Diego, USA) and IC50 values were calculated as a measure of the antagonistic potencies.

[2] = target: T1, human CRTH2; test: Receptor binding assay: [3H]PGD2 competition binding on whole COS-7 cells transiently transfected with CRTH2 (also stable HEK293 cells); parameters: expressed in transfected cells; host or cells: COS-7 (transient, calcium phosphate)
Text: as §1, §2
Binding assay. 24 h after transfection COS-7 cells were seeded into 96 well plates at a density of 30.000 cells/well. Competition binding experiments on whole cells were then performed about 18-24 h later using 0.1 nM [^3H]PGD2 (NEN, 172 Ci/mmol) in a binding buffer consisting of HBSS (GIBCO) and 10 mM HEPES. Competing ligands were diluted in DMSO which was kept constant at 1% (v/v) of the final incubation volume. Total and nonspecific binding were determined in the absence and presence of 10 μM PGD2. Binding reactions were routinely conducted for 3 h at 4° C. and terminated by 2 washes (100 μl each) with ice cold binding buffer. Radioactivity was determined by liquid scintillation counting in a TOPCOUNTER (Packard) following over night incubation in Microscint 20. Stable HEK293 cells were seeded at a density of 30.000 cells/well 18-24 h prior to the binding assay which was performed essentially as described for COS7 cells above. Determinations were made in duplicates.
as §3

[3] = BRET, antagonist incubated 15 minutes prior to agonist
[4] = competition with 0.1 nM [3H]PGD2, whole cells, 3 h at 4° C.
[5] = functional antagonist assay, Table 3
[6] = receptor binding assay, Table 3

| pIC50 [1, 3] | pIC50 [2, 4] | pIC50 [1, 5] | pIC50 [2, 6] | SMILES |
| --- | --- | --- | --- | --- |
| > 6.30 | > 6.30 |  |  | O=C(O)COc1ccc(Br)cc1C(=O)c1cnn(-c2ccc(Br)cc2Cl)c1 [D34, 4-Bromo-2-[1-(4-bromo-2-chlorophenyl)-1H-pyrazole-4-carbonyl]phenoxyacetic acid] |
| < 5.30 | > 6.30 |  |  | O=C(O)COc1ccc(Br)cc1-c1coc(-c2ccc(Cl)cc2)n1 [D85, {4-Bromo-2-[2-(4-chlorophenyl)oxazol-4-yl]phenoxy}acetic acid] |
| > 6.30 | > 6.30 |  |  | COc1cccc(-c2nc(-c3cc(Br)ccc3OCC(=O)O)co2)c1 [D86, {4-Bromo-2-[2-(3-methoxyphenyl)oxazol-4-yl]phenoxy}acetic acid] |
|  |  | > 6.30 | > 6.30 | COc1ccc(Cc2noc(-c3cc(Br)ccc3OCC(=O)O)n2)cc1OC [D124, {4-Bromo-2-[3-(3,4-dimethoxybenzyl)-[1,2,4]oxadiazol-5-yl]phenoxy}-acetic acid] |
| > 6.30 | > 6.30 |  |  | CC(Oc1ccc(Br)cc1C(=O)c1cnn(-c2c(Cl)cccc2Cl)c1)C(=O)O (stereo not drawn) [D39, 2-{4-Bromo-2-[1-(2,6-dichlorophenyl)-1H-pyrazole-4-carbonyl]phenoxy}propionic acid] |
|  |  | > 6.30 | > 6.30 | O=C(O)COc1ccc(Br)cc1-c1nc(Cc2ccc(OC(F)(F)F)cc2)no1 [D113, {4-Bromo-2-[3-(4-trifluoromethoxy-benzyl)-[1,2,4]oxadiazol-5-yl]-phenoxy}-acetic acid] |
|  |  | 5.30 to 6.30 | > 6.30 | COc1cc(Cc2noc(-c3cc(Br)ccc3OCC(=O)O)n2)cc(OC)c1 [D128, {4-Bromo-2-[3-(3,5-dimethoxybenzyl)-[1,2,4]oxadiazol-5-yl]phenoxy}acetic acid] |
| > 6.30 | > 6.30 |  |  | CC(Oc1ccc(Br)cc1C(=O)c1cnn(-c2c(Cl)cc(Cl)cc2Cl)c1)C(=O)O (stereo not drawn) [D68, 2-{4-Bromo-2-[1-(2,4,6-trichlorophenyl)-1H-pyrazole-4-carbonyl]phenoxy}propionic acid] |
| > 6.30 | > 6.30 |  |  | COc1cccc(Cc2nc(-c3cc(Br)ccc3OCC(=O)O)co2)c1 [D89, {4-Bromo-2-[2-(3-methoxybenzyl)oxazol-4-yl]phenoxy}acetic acid] |
|  |  | > 6.30 | > 6.30 | COc1ccc(Cc2noc(-c3cc(Br)ccc3OCC(=O)O)n2)cc1 [D118, {4-Bromo-2-[3-(4-methoxy-benzyl)-[1,2,4]oxadiazol-5-yl]-phenoxy}-acetic acid] |
|  |  | > 6.30 | > 6.30 | O=C(O)COc1ccc(Br)cc1-c1nc(-c2c(Cl)cccc2Cl)no1 [D110, {4-Bromo-2-[3-(2,6-dichlorophenyl)-[1,2,4]oxadiazol-5-yl]phenoxy}acetic acid] |
| > 6.30 | 5.30 to 6.30 |  |  | Nc1ccc(OCC(=O)O)c(C(=O)c2cnn(-c3ccccc3)c2)c1 [D66, [4-Amino-2-(1-phenyl-1H-pyrazole-4-carbonyl)phenoxy]acetic acid] |
| > 6.30 | > 6.30 |  |  | N#Cc1ccccc1-n1cc(C(=O)c2cc(Br)ccc2OCC(=O)O)cn1 [D40, {4-Bromo-2-[1-(2-cyano-phenyl)-1H-pyrazole-4-carbonyl]phenoxy}acetic acid] |
| < 5.30 | > 6.30 |  |  | CCOc1ccc(-c2nc(-c3cc(Br)ccc3OCC(=O)O)co2)cc1 [D87, {4-Bromo-2-[2-(4-ethoxyphenyl)oxazol-4-yl]phenoxy}acetic acid] |
|  |  | > 6.30 | > 6.30 | O=C(O)COc1ccc(Br)cc1-c1nc(-c2ccc(Cl)cc2)no1 [D102, {4-Bromo-2-[3-(4-chlorophenyl)-[1,2,4]oxadiazol-5-yl]phenoxy}acetic acid] |
|  |  | > 6.30 | > 6.30 | Cc1ccc(Cc2noc(-c3cc(Br)ccc3OCC(=O)O)n2)cc1 [D126, {4-Bromo-2-[3-(4-methylbenzyl)-[1,2,4]oxadiazol-5-yl]phenoxy}acetic acid] |
| > 6.30 | > 6.30 |  |  | O=C(O)COc1ccc(Br)cc1-c1nc(C2(c3ccccc3)CC2)no1 [D132, {4-Bromo-2-[3-(1-phenylcyclopropyl)-[1,2,4]oxadiazol-5-yl]phenoxy}acetic acid] |
| > 6.30 | > 6.30 |  |  | O=C(O)COc1ccc([N+](=O)[O-])cc1C(=O)c1cnn(-c2ccc(Cl)cc2)c1 [D19, 4-Nitro-2-[1-(4-chlorophenyl)-1H-pyrazole-4-carbonyl]phenoxyacetic acid] |
| < 5.30 | > 6.30 |  |  | CCCCc1ccc(OCC(=O)O)c(C(=O)c2cnn(-c3ccccc3)c2)c1 [D75, [4-Butyl-2-(1-phenyl-1H-pyrazole-4-carbonyl)phenoxy]acetic acid] |
|  |  | < 5.30 | > 6.30 | O=C(O)COc1ccc(Br)cc1-c1nc(-c2cc(C(F)(F)F)cc(C(F)(F)F)c2)no1 [D109, {2-[3-(3,5-Bis-trifluoromethyl-phenyl)-[1,2,4]oxadiazol-5-yl]-4-bromo-phenoxy}-acetic acid] |
| > 6.30 | > 6.30 |  |  | CC(C)c1ccc(OCC(=O)O)c(C(=O)c2cnn(-c3ccccc3Cl)c2)c1 [D31, 2-[1-(2-Chlorophenyl)-1H-pyrazole-4-carbonyl]-4-isopropylphenoxyacetic acid] |
| > 6.30 | > 6.30 |  |  | O=C(O)COc1ccc(Br)cc1C(=O)c1cnn(-c2ccccc2C(F)(F)F)c1 [D23, 4-Bromo-2-[1-(2-trifluoromethylphenyl)-1H-pyrazole-4-carbonyl]phenoxyacetic acid] |
| > 6.30 | > 6.30 |  |  | CC(Oc1ccc(Br)cc1C(=O)c1cnn(-c2ccccc2)c1)C(=O)O (racemic) [D37, 2-[4-Bromo-2-(1-phenyl-1H-pyrazole-4-carbonyl)phenoxy]propionic acid] |
| > 6.30 | > 6.30 |  |  | CCc1ccc(OCC(=O)O)c(C(=O)c2cnn(-c3ccccc3Br)c2)c1 [D30, 4-Ethyl-2-[1-(2-bromophenyl)-1H-pyrazole-4-carbonyl]phenoxyacetic acid] |
| > 6.30 | > 6.30 |  |  | O=C(O)COc1ccc([N+](=O)[O-])cc1C(=O)c1cnn(-c2ccccc2Cl)c1 [D27, 4-Nitro-2-[1-(2-chlorophenyl)-1H-pyrazole-4-carbonyl]phenoxyacetic acid] |
|  | > 6.30 |  |  | O=C(O)COc1ccc(Br)cc1C(=O)c1cc(-c2c(Cl)cccc2Cl)no1 [D98, {4-Bromo-2-[3-(2,6-dichloro-phenyl)isoxazole-5-carbonyl]phenoxy}acetic acid] |
